Assay results taken from US11541027B2 (DelMar Pharmaceuticals, Inc., priority 2014, dated 2023).

Key:
[1] = Stability of reconstituted dianhydrogalactitol stock solution; format: physicochemical; conditions: 8 mg/mL in 0.9% sodium chloride for injection
Procedure: For administration, 5 mL of 0.9% sodium chloride for injection, USP (saline) was added to yield a DAG solution with a concentration of 8 mg/mL.

[2] = system: H1975 (TKI-resistant) human lung adenocarcinoma xenograft tumors; experiment: H1975 NSCLC xenograft tumor model in female Rag2 mice
Procedure: Rag2 mice bearing subcutaneous human lung adenocarcinoma xenograft tumors of either TKI-resistant (H1975) or TKI-sensitive (A549) origin were treated.
Two human NSCLC cell lines, A549 (TKI-sensitive) and H1975 (TKI-resistant), were used as xenograft tumor models in female Rag2 mice. The mice were 6 to 8 weeks of age and weighed 18-23 grams. 10 mice were used per group.
Rag2 mice bearing subcutaneous human lung adenocarcinoma xenograft tumors of either TKI-sensitive (A549) or TKI-resistant (H1975) origin were treated. […] Saline was used as control treatment. Disease progression was evaluated by tumor volume, clinical observations and body weight measurements. Blood samples were analyzed for CBC/differential analyses to assess myelosuppression or other changes in blood chemistry.
Cell number for inoculation was 5×10^6 cells for A549 cells in an injection volume of 50 μL per animal. For H1975 cells, cell number for inoculation was 2×10^6 cells in an injection volume of 50 μL per animal.
Treatment was initiated at average tumor volume of 100-150 mm^3.
Tumor growth delay (TGD) was calculated according to Equation (2): TGD=DTtx−DTcontrol (2).
For these calculations, TV is tumor volume, tx is treatment, int is initial, DT is doubling time for mean tumor volume from 200 mm^3 to 400 mm^3 for A549 or from 300 mm^3 to 600 mm^3 for H1975. MTV is mean tumor volume in mm^3 and TCR is tumor control ratio.
Disease progression was evaluated by tumor volume, clinical observations and body weight measurements.

A549 = experiment: Cytotoxicity in NSCLC tumor models; format: cell-based, human; conditions: A549, p53 wt; N = 3
Source text: (§1) The cell lines include cell lines with wild-type p53, cell lines with mutant p53, and cell lines in which p53 has been knocked out (“null”). The properties of these cell lines are described in F. Bunz et al., “Requirement for p53 and p21 to Sustain G2 Arrest After DNA Damage,” Science 282: 1497-1501 (1998), incorporated herein by this reference.

H838 = experiment: Cytotoxicity in NSCLC tumor models; format: cell-based, human; conditions: H838, p53 wt; N = 3
Source text: as §1

H460 = experiment: Cytotoxicity in NSCLC tumor models; format: cell-based, human; conditions: H460, p53 wt; N = 3; listed as DAG
Source text: as §1

H226 = experiment: Cytotoxicity in NSCLC tumor models; format: cell-based, human; conditions: H226, p53 wt; N = 3
Source text: as §1

SkLU1 = experiment: Cytotoxicity in NSCLC tumor models; format: cell-based, human; conditions: SkLU1, p53 mu; N = 3
Source text: as §1

H157 = experiment: Cytotoxicity in NSCLC tumor models; format: cell-based, human; conditions: H157, p53 mu; N = 3
Source text: as §1

H1975 = experiment: Cytotoxicity in NSCLC tumor models; format: cell-based, human; conditions: H1975, p53 mu; N = 3
Source text: as §1

H2122 = experiment: Cytotoxicity in NSCLC tumor models; format: cell-based, human; conditions: H2122, p53 mu; N = 3
Source text: as §1

H1299 = experiment: Cytotoxicity in NSCLC tumor models; format: cell-based, human; conditions: H1299, p53 null; N = 3
Source text: as §1

RIF-1 cell-line = experiment: Standard syngeneic mouse fibrosarcoma model, tumor growth delay; format: in vivo; conditions: 10 mg/kg, single IP injection, RIF-1 in C3H mice; for Tumor Delay: vs untreated
[3] = system: NSCLC cell lines other than H460; experiment: Cytotoxicity in NSCLC tumor models, range over the cell lines other than H460; format: cell-based, human; conditions: NSCLC cell lines other than H460, single agents
[4] = 4 mg/kg i.p., stopped after 6 doses

dianhydrogalactitol
time for which the stock solution was stable ([1]; 4° C.): 24 h
time for which the stock solution was stable ([1]; room temperature): 4 h
MTV at Day 31 ([2]; 2 mg/kg i.p. M, W, F × 3): 396 mm^3
Median survival ([2]; 2 mg/kg i.p. M, W, F × 3): 31 days
TCR at Day 31 ([2]; 2 mg/kg i.p. M, W, F × 3, tumor control ratio): 0.87
MTV at Day 31 ([2]; 3 mg/kg i.p. M, W, F × 3): 383 mm^3
Median survival ([2]; 3 mg/kg i.p. M, W, F × 3): 31 days
TCR at Day 31 ([2]; 3 mg/kg i.p. M, W, F × 3, tumor control ratio): 0.84
body weight ([2]; 4 mg/kg i.p. (group 5), treatment stopped after 6 doses, mice then quickly recovered): significant body weight loss
MTV at Day 31 [2, 4]: 262 mm^3
Median survival [2, 4]: 41 days
TCR at Day 31 ([2]; 4 mg/kg i.p., stopped after 6 doses, tumor control ratio): 0.57
IC50 (A549): 1.75 µM
IC50 (H838): 4.52 µM
IC50 (H460): 0.49 µM
IC50 (H226): 6.11 µM
IC50 (SkLU1): 2.72 µM
IC50 (H157): 4.48 µM
IC50 (H1975): 0.9 µM
IC50 (H2122): 2.84 µM
IC50 (H1299): 2.37 µM
Days to 4 × Median Tumor Size (RIF-1 cell-line): 11.45 days
Tumor Delay (RIF-1 cell-line): 5.16 days
Tumor Delay (RIF-1 cell-line; listed as dianhydrogalactitol): 5.6 days
IC50 [3]: 0.9 to 6.1 µM
